{"source": "patent US10385022B2", "about": "“3-amino-pyridines as GPBAR1 agonists” (HOFFMANN-LA ROCHE INC., priority 2011, dated 2019)"}
{"target": "human GPBAR1 receptor (Homo sapiens (Human), UniProt Q8TDU6)", "sequence (Q8TDU6 whole entry)": "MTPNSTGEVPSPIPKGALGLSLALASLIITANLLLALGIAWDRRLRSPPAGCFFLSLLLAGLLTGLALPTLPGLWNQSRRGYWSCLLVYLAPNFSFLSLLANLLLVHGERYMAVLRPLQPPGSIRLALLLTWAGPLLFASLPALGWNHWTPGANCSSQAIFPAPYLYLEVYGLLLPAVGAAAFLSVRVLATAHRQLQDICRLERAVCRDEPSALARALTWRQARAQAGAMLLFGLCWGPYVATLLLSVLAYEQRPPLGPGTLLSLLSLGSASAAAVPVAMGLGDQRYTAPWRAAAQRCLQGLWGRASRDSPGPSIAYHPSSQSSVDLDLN", "experiment": "functional cAMP assay in CHO-dhfr(minus) cells expressing human GPBAR1 receptors", "format": "cell-based", "conditions": "CHO-dhfr(minus) cells expressing human GPBAR1, 30 min at 30° C.", "in_short": "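Functional cAMP responses in a human GPBAR1-transfected CHO-dhfr- clone, picked using lithocholic acid as agonist, gave the EC50 values. Parallel testing in untransfected CHO cells served as a specificity control.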", "units": {"EC50": "nM"}}
{"smiles": "COc1cc(F)ccc1-c1ccncc1N(Cc1ncco1)C(=O)c1cc(C(F)(F)F)cc(S(C)(=O)=O)c1", "note": "[Example 22, N-[4-(4-Fluoro-2-methoxy-phenyl)-pyridin-3-yl]-3-methanesulfonyl-N-oxazol-2-ylmethyl-5-trifluoromethyl-benzamide]", "EC50": 35}
{"smiles": "COc1cc(F)ccc1-c1cc(C)ncc1N(C)C(=O)c1cc(SCCCCC(=O)NCC(=O)O)cc(C(F)(F)F)c1", "note": "[Example 315, [5-(3-{[4-(4-Fluoro-2-methoxy-phenyl)-6-methyl-pyridin-3-yl]-methyl-carbamoyl}-5-trifluoromethyl-phenylsulfanyl)-pentanoylamino]-acetic acid]", "EC50": 451}
{"smiles": "COc1cc(F)ccc1-c1ccncc1N(C)C(=O)c1cc(C(F)(F)F)cc(S(=O)(=O)CCCCC(N)=O)c1", "note": "[Example 254, 3-(4-Carbamoyl-butane-1-sulfonyl)-N-[4-(4-fluoro-2-methoxy-phenyl)-pyridin-3-yl]-N-methyl-5-trifluoromethyl-benzamide]", "EC50": 54}
{"smiles": "Cc1ccccc1-c1ccncc1N(C)C(=O)c1ccc(Cl)c(C(F)(F)F)c1", "note": "[Example 95, 4-Chloro-N-methyl-N-(4-o-tolyl-pyridin-3-yl)-3-trifluoromethyl-benzamide]", "EC50": 92}
{"smiles": "COC(=O)CN(C(=O)c1cc(C(F)(F)F)nc(C(F)(F)F)c1)c1cnccc1-c1cc(F)c(F)cc1OC", "note": "[Example 173, {(2,6-Bis-trifluoromethyl-pyridine-4-carbonyl)-[4-(4,5-difluoro-2-methoxy-phenyl)-pyridin-3-yl]-amino}-acetic acid methyl ester]", "EC50": 53}
{"smiles": "O=C(c1cc(C(F)(F)F)cc(C(F)(F)F)c1)N(CCF)c1cnccc1-c1ccccc1Cl", "note": "[Example 110, N-[4-(2-Chloro-phenyl)-pyridin-3-yl]-N-(2-fluoro-ethyl)-3,5-bis-trifluoromethyl-benzamide]", "EC50": 152}
{"smiles": "CS(=O)(=O)c1cc(C(=O)N(CC(F)(F)F)c2cnccc2-c2ccccc2Cl)cc(C(F)(F)F)c1", "note": "[Example 287, N-[4-(2-Chloro-phenyl)-pyridin-3-yl]-3-methanesulfonyl-N-(2,2,2-trifluoro-ethyl)-5-trifluoromethyl-benzamide]", "EC50": 539}
{"smiles": "Cc1ccc(F)cc1-c1cc(Cl)ncc1N(C)C(=O)c1cc(C(F)(F)F)cc(S(C)(=O)=O)c1", "note": "[Example 253, N-[6-Chloro-4-(5-fluoro-2-methyl-phenyl)-pyridin-3-yl]-3-methanesulfonyl-N-methyl-5-trifluoromethyl-benzamide]", "EC50": 3040}
{"smiles": "COc1cc(F)ccc1-c1ccncc1N(C)C(=O)c1cc(OC(F)(F)F)cc(S(C)(=O)=O)c1", "note": "[Example 252, N-[4-(4-Fluoro-2-methoxy-phenyl)-pyridin-3-yl]-3-methanesulfonyl-N-methyl-5-trifluoromethoxy-benzamide]", "EC50": 170}
{"smiles": "COc1cc(F)ccc1-c1ccncc1N(C)C(=O)c1cc(SCCNC(=O)OC(C)(C)C)cc(C(F)(F)F)c1", "note": "[Example 234, [2-(3-{[4-(4-Fluoro-2-methoxy-phenyl)-pyridin-3-yl]-methyl-carbamoyl}-5-trifluoromethyl-phenylsulfanyl)-ethyl]-carbamic acid tert-butyl ester]", "EC50": 405}
{"smiles": "COc1cc(F)ccc1-c1ccncc1N(C)C(=O)c1cc(SC2CN(C(=O)OC(C)(C)C)C2)cc(C(F)(F)F)c1", "note": "[Example 268, 3-(3-{[4-(4-Fluoro-2-methoxy-phenyl)-pyridin-3-yl]-methyl-carbamoyl}-5-trifluoromethyl-phenylsulfanyl)-azetidine-1-carboxylic acid tert-butyl ester]", "EC50": 768}
{"smiles": "CN(C(=O)c1cc(C(F)(F)F)cc(S(C)(=O)=O)c1)c1cnccc1-c1ccccc1Cl", "note": "[Example 278, N-[4-(2-Chloro-phenyl)-pyridin-3-yl]-3-methanesulfonyl-N-methyl-5-trifluoromethyl-benzamide]", "EC50": 107}
{"smiles": "Cc1ccccc1-c1ccncc1N(C)C(=O)c1cc(C#N)cc(C(F)(F)F)c1", "note": "[Example 149, 3-Cyano-N-methyl-N-(4-o-tolyl-pyridin-3-yl)-5-trifluoromethyl-benzamide]", "EC50": 242}
{"smiles": "COc1cc(F)ccc1-c1ccncc1N(C)C(=O)c1cc(C(F)(F)F)cc(S(=O)(=O)C2CN(S(C)(=O)=O)C2)c1", "note": "[Example 282, N-[4-(4-Fluoro-2-methoxy-phenyl)-pyridin-3-yl]-3-(1-methanesulfonyl-azetidine-3-sulfonyl)-N-methyl-5-trifluoromethyl-benzamide]", "EC50": 69}
{"smiles": "Cc1ccccc1-c1ccncc1N(CC(F)F)C(=O)c1cc(C(F)(F)F)nc(C(F)(F)F)c1", "note": "[Example 157, N-(2,2-Difluoro-ethyl)-N-(4-o-tolyl-pyridin-3-yl)-2,6-bis-trifluoromethyl-isonicotinamide]", "EC50": 88}
{"smiles": "CNc1cc(-c2ccccc2C)c(N(C)C(=O)c2cc(C(F)(F)F)cc(C(F)(F)F)c2)cn1", "note": "[Example 15, N-Methyl-N-(6-methylamino-4-o-tolyl-pyridin-3-yl)-3,5-bis-trifluoromethyl-benzamide]", "EC50": 323}
{"smiles": "COc1cc(F)ccc1-c1ccncc1N(C)C(=O)c1cc(SCCCCC(=O)O)cc(C(F)(F)F)c1", "note": "[Example 243, 5-(3-{[4-(4-Fluoro-2-methoxy-phenyl)-pyridin-3-yl]-methyl-carbamoyl}-5-trifluoromethyl-phenylsulfanyl)-pentanoic acid]", "EC50": 610}
{"smiles": "CS(=O)(=O)c1cc(C(=O)N(CC(N)=O)c2cnccc2-c2ccccc2OC(F)(F)F)cc(C(F)(F)F)c1", "note": "[Example 319, N-Carbamoylmethyl-3-methanesulfonyl-N-[4-(2-trifluoromethoxy-phenyl)-pyridin-3-yl]-5-trifluoromethyl-benzamide]", "EC50": 3340}
{"smiles": "Cc1ccccc1-c1ccncc1N(C)C(=O)c1cc(C(F)(F)F)nc(C(F)(F)F)c1", "note": "[Example 131, N-Methyl-N-(4-o-tolyl-pyridin-3-yl)-2,6-bis-trifluoromethyl-isonicotinamide]", "EC50": 19}
{"smiles": "CN(C(=O)c1cc(CO)cc(C(F)(F)F)c1)c1cnccc1-c1ccccc1Cl", "note": "[Example 76, N-[4-(2-Chloro-phenyl)-pyridin-3-yl]-3-hydroxymethyl-N-methyl-5-trifluoromethyl-benzamide]", "EC50": 1960}
{"smiles": "CN(C(=O)c1cc(C(F)(F)F)cc(C(F)(F)F)c1)c1cnccc1-c1ccc(F)cc1O", "note": "[Example 48, N-[4-(4-Fluoro-2-hydroxy-phenyl)-pyridin-3-yl]-N-methyl-3,5-bis-trifluoromethyl-benzamide]", "EC50": 307}
{"smiles": "COc1cc(F)ccc1-c1ccncc1N(C)C(=O)c1cc(C(F)(F)F)cc(C(F)(F)F)c1", "note": "[Example 38, N-[4-(4-Fluoro-2-methoxy-phenyl)-pyridin-3-yl]-N-methyl-3,5-bis-trifluoromethyl-benzamide]", "EC50": 11}
{"smiles": "CS(=O)(=O)CCN(C(=O)c1cc(C(F)(F)F)cc(C(F)(F)F)c1)c1cnccc1-c1ccccc1F", "note": "[Example 191, N-[4-(2-Fluoro-phenyl)-pyridin-3-yl]-N-(2-methanesulfonyl-ethyl)-3,5-bis-trifluoromethyl-benzamide]", "EC50": 111}
{"smiles": "Cc1ccccc1-c1ccncc1N(CC(F)(F)F)C(=O)c1cc(C(F)(F)F)nc(C(F)(F)F)c1", "note": "[Example 150, N-(4-o-Tolyl-pyridin-3-yl)-N-(2,2,2-trifluoro-ethyl)-2,6-bis-trifluoromethyl-isonicotinamide]", "EC50": 90}
{"smiles": "COc1cc(F)ccc1-c1ccncc1N(C)C(=O)c1cc(SCCN)cc(C(F)(F)F)c1", "note": "[Example 237, 3-(2-Amino-ethylsulfanyl)-N-[4-(4-fluoro-2-methoxy-phenyl)-pyridin-3-yl]-N-methyl-5-trifluoromethyl-benzamide]", "EC50": 340}
{"smiles": "Cc1cc(-c2ccccc2OC2COC2)c(N(C)C(=O)c2cc(C(F)(F)F)cc(S(C)(=O)=O)c2)cn1", "note": "[Example 318, 3-Methanesulfonyl-N-methyl-N-{6-methyl-4-[2-(oxetan-3-yloxy)-phenyl]-pyridin-3-yl}-5-trifluoromethyl-benzamide]", "EC50": 1110}
{"smiles": "COc1cccc(F)c1-c1ccncc1N(CC(F)(F)F)C(=O)c1cc(C(F)(F)F)cc(S(C)(=O)=O)c1", "note": "[Example 223, N-[4-(2-Fluoro-6-methoxy-phenyl)-pyridin-3-yl]-3-methanesulfonyl-N-(2,2,2-trifluoro-ethyl)-5-trifluoromethyl-benzamide]", "EC50": 46}
{"smiles": "COC(=O)CN(C(=O)c1cc(C(F)(F)F)cc(S(C)(=O)=O)c1)c1cnccc1-c1ccccc1F", "note": "[Example 213, [[4-(2-Fluoro-phenyl)-pyridin-3-yl]-(3-methanesulfonyl-5-trifluoromethyl-benzoyl)-amino]-acetic acid methyl ester]", "EC50": 253}
{"smiles": "Cc1ccccc1-c1ccncc1N(C)C(=O)c1cc([N+](=O)[O-])cc(C(F)(F)F)c1", "note": "[Example 184, N-Methyl-3-nitro-N-(4-o-tolylpyridin-3-yl)-5-(trifluoromethyl)benzamide]", "EC50": 15}
{"smiles": "CN(C(=O)c1cc(C(F)(F)F)cc(C(F)(F)F)c1)c1cnccc1-c1ccc(F)cc1F", "note": "[Example 37, N-[4-(2,4-Difluoro-phenyl)-pyridin-3-yl]-N-methyl-3,5-bis-trifluoromethyl-benzamide]", "EC50": 40}
{"smiles": "COc1cc(F)ccc1-c1ccncc1N(C)C(=O)c1cc(O)cc(C(F)(F)F)c1", "note": "[Example 226, N-[4-(4-Fluoro-2-methoxy-phenyl)-pyridin-3-yl]-3-hydroxy-N-methyl-5-trifluoromethyl-benzamide]", "EC50": 958}
{"smiles": "Cc1cc(C)nc(C(=O)N(C)c2cnccc2-c2ccccc2C)c1", "note": "[Example 121, 4,6-Dimethyl-pyridine-2-carboxylic acid methyl-(4-o-tolyl-pyridin-3-yl)-amide]", "EC50": 1920}
{"smiles": "O=C(c1cc(C(F)(F)F)cc(C(F)(F)F)c1)N(CC(F)(F)F)c1cnccc1-c1ccccc1Cl", "note": "[Example 85, N-[4-(2-Chloro-phenyl)-pyridin-3-yl]-N-(2,2,2-trifluoro-ethyl)-3,5-bis-trifluoromethyl-benzamide]", "EC50": 200}
{"smiles": "CN(C(=O)c1cc(C(F)(F)F)cc(C(F)(F)F)c1)c1cnccc1-c1cccc(Cl)n1", "note": "[Example 71, N-(6-Chloro-[2,4′]bipyridinyl-3′-yl)-N-methyl-3,5-bis-trifluoromethyl-benzamide]", "EC50": 1540}
